The text below walks through data of patent US8450525B2, “Histone deacetylase inhibitors” (Orchid Chemicals & Pharmaceuticals Limited, priority 2007, dated 2013).

Assay [1] has as its target T1, HDAC (Mouse Liver Extract).
T1 construct: Mouse liver enzyme (10 mg/ml) was diluted 1:6 with HDAC buffer
Description: HDAC inhibition assay using Boc-Lys(Ac)-AMC substrate, mouse liver enzyme.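 For IC50: IC50 for inhibition of HDAC activity in mouse liver extract.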 The assay is classed as biochemical.

The target in the next assay is T2, recombinant HDAC1 enzyme (Homo sapiens, UniProt Q13547).
T2 construct: purchased BIOMOL, USA
T2 sequence (Q13547 whole entry): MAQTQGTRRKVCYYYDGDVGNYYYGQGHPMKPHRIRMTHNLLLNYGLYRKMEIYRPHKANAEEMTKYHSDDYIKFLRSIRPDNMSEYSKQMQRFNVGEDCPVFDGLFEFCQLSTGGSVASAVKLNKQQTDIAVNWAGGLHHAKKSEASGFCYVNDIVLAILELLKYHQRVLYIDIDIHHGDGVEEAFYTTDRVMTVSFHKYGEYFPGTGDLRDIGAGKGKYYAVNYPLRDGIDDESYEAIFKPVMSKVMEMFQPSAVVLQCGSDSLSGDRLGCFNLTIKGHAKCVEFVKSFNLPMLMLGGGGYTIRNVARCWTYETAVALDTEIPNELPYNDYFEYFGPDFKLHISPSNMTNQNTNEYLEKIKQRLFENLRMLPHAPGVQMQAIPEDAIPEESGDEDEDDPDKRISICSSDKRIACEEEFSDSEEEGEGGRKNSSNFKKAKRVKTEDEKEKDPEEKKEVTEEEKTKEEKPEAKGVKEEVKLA
Description: HDAC1 inhibitory activity, recombinant enzyme. To be noted: recombinant HDAC1 (BIOMOL); read-out: HDAC1 inhibition (IC50). The assay is classed as biochemical. The method, then:
Assay was done in 96-well black microplate and total volume of the assay was 100 μL. Mouse liver enzyme (10 mg/ml) was diluted 1:6 with HDAC buffer. Enzyme cocktail was made of 10 μL of diluted enzyme and 30 μL of HDAC buffer. 40 μl of enzyme cocktail followed by 10 μL of test compound (1 μM and 10 μM) or buffer (control) was added to each well. The plate was pre-incubated at 37° C. for 5 minutes. The HDAC reaction was started by adding 50 μl of HDAC substrate Boc-Lys (Ac)-AMC (Bachem AG, Switzerland). The plate was incubated at 37° C. for 30 minutes. The reaction was stopped by adding 100 μL of Trypsin stop solution and incubating at 37° C. for 15-30 minutes. Measuring the fluorescence at excitation wavelength of 360 nm and emission wavelength of 460 nm monitored the release of AMC. Buffer alone and substrate alone served as blank. […] (Dennis Wegener et al, Anal. Biochem, 321, 2003, 202-208).
Since the benzamide type compounds are known to have potential for HDAC class 1 specificity, active compounds were tested for HDAC1 inhibitory activity. The assay was carried out, as previously described using recombinant HDAC1 enzyme (BIOMOL, USA) and following manufacturer's instructions.

In a further assay the test system is U251 (glioma) cells. In words: Anti-cancer screen, growth inhibition (MTT). To be noted: Homo sapiens, U-251 cells, 48 hours of incubation. It is filed as cell-based. In short, it runs like this: (§1)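 MTT added for 3 h at 37° C, formazan dissolved in DMSO and A570 read. A T0 plate was measured at compound addition.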
The next assay has as its system NCI-H460 (lung) cells. In words: Anti-cancer screen, growth inhibition (MTT). It is filed as cell-based. The settings on record: Homo sapiens, 48 hours of incubation. In short, it runs like this: as §1
Another assay has as its system HCT 116 (colon) cells. Description: Anti-cancer screen, growth inhibition (MTT). The assay is classed as cell-based. To be noted: Homo sapiens, HCT-116 cells, 48 hours of incubation. In short, it runs like this:
as §1

Bounds are passed on as bounds.

What is called IC50 is the concentration that inhibits the measured activity by half. What is called GI50 is the concentration giving 50% growth inhibition. Lower therefore signals greater sensitivity of the cells. For the compound `COc1ccc(/C(=C\c2ccc(C(=O)Nc3ccccc3N)cc2)C(=O)NC2CC2)cc1` [Example 116, N-(2-Aminophenyl)-4-(3-(cyclopropylamino)-2-(4-methoxyphenyl)-3-oxoprop-1-en-1-yl)benzamide], the IC50 in assay [1] is 9 µM; on recombinant HDAC1 enzyme it was 0.06 µM. In addition, the “HDAC Inhibition % (1 μM)” value in assay [1] turned out to be 32.4%. Also, the “HDAC Inhibition % (10 μM)” value in assay [1] was found to be 55.7%. For the same compound, the GI50 turned out to be 11 µM with U251 (glioma) cells, 6.1 µM with NCI-H460 (lung) cells and 0.4 µM in the assay with HCT 116 (colon) cells.

`Nc1ccccc1NC(=O)c1ccc(C=C(C(=O)NC2CC2)c2ccccc2)cc1` [Example 107, N-(2-Aminophenyl)-4-(3-(cyclopropylamino)-2-phenyl-3-oxoprop-1-en-1-yl)benzamide]: the IC50 in assay [1] came to 12 µM; on recombinant HDAC1 enzyme it was 0.18 µM. The “HDAC Inhibition % (1 μM)” value in assay [1] was 34.1%. For the same compound, the “HDAC Inhibition % (10 μM)” value in assay [1] was 58.4%. Moreover, the GI50 in the assay on U251 (glioma) cells worked out at 4.5 µM; in the assay on NCI-H460 (lung) cells, 5 µM; in the assay on HCT 116 (colon) cells, 2 µM.

Regarding `Nc1ccccc1NC(=O)c1ccc(/C=C(/C(=O)NC2CC2)c2cccc(F)c2)cc1` [Example 110, N-(2-Aminophenyl)-4-(3-(cyclopropylamino)-2-(3-fluorophenyl)-3-oxoprop-1-en-1-yl)benzamide], the values for the IC50 (in assay [1]; on recombinant HDAC1 enzyme) were 5 µM and 0.15 µM, respectively. In addition, in assay [1], the “HDAC Inhibition % (1 μM)” value was 45.7%. Moreover, the “HDAC Inhibition % (10 μM)” value in assay [1] is given as 71.4%. In addition, the GI50 in the assay on U251 (glioma) cells was found to be 5 µM; in the assay on NCI-H460 (lung) cells, 5.5 µM; in the assay with HCT 116 (colon) cells, 0.3 µM.

As for `Nc1ccccc1NC(=O)c1ccc(/C=C(/C(=O)NC2CC2)c2ccccc2Cl)cc1` [Example 112, N-(2-Aminophenyl)-4-(3-(cyclopropylamino)-2-(2-chlorophenyl)-3-oxoprop-1-en-1-yl)benzamide], the IC50 in assay [1] is 4.5 µM; at recombinant HDAC1 enzyme, 0.049 µM. For the same compound, the “HDAC Inhibition % (1 μM)” value in assay [1] came to 29.9%. The “HDAC Inhibition % (10 μM)” value in assay [1] worked out at 55.7%. In addition, the GI50 with U251 (glioma) cells was 20 µM; in the assay with NCI-H460 (lung) cells it was 1.1 µM; in the assay on HCT 116 (colon) cells, 6 µM.

Regarding `Nc1ccccc1NC(=O)c1ccc(/C=C(/C(=O)NC2CC2)c2ccc3c(c2)OCO3)cc1` [Example 111, N-(2-Aminophenyl)-4-(3-(cyclopropylamino)-2-(1,3-benzodioxol-5-yl)-3-oxoprop-1-en-1-yl)benzamide], the IC50 in assay [1] is 8 µM; on recombinant HDAC1 enzyme, 0.1 µM. The “HDAC Inhibition % (1 μM)” value in assay [1] is listed as 24.8%. Further, the “HDAC Inhibition % (10 μM)” value in assay [1] is 52.2%. Further, the GI50 in the assay with U251 (glioma) cells was determined as 1.5 µM; in the assay on NCI-H460 (lung) cells it was 2.1 µM; in the assay with HCT 116 (colon) cells, 1.1 µM.

As for `Nc1ccccc1NC(=O)/C=C/c1ccc(/C=C(/C(=O)NC2CC2)c2ccccc2F)cc1` [Example 65, N-Cyclopropyl-3-(4-((1E)-3-(2-aminophenylamino)-3-oxoprop-1-en-1-yl}phenyl)-2-(2-fluorophenyl)acrylamide], in assay [1], the “HDAC Inhibition % (1 μM)” value turned out to be 31.2%. Also, the “HDAC Inhibition % (10 μM)” value in assay [1] was 56.2%. Also, the results for the GI50 with U251 (glioma) cells, with NCI-H460 (lung) cells and in the assay with HCT 116 (colon) cells were 82 µM, 80 µM and greater than 100 µM, respectively.

`O=C(/C=C/c1ccc(/C=C(/C(=O)NC2CC2)c2ccccc2)cc1)NCCCCCC(=O)NO` [Example 82, 6-((1E)-3-(4-(3-(cyclopropylamino)-2-phenyl-3-oxoprop-1-enyl)phenyl)acrylamido)-N-hydroxyhexanamide]: in assay [1], the IC50 is 0.0085 µM, the “HDAC Inhibition % (1 μM)” value was determined as 93.2% and the “HDAC Inhibition % (10 μM)” value is 98.6%. Also, in the assay with U251 (glioma) cells, the GI50 was 7 µM. This compound registered a GI50 with NCI-H460 (lung) cells of 1 µM. In the assay on HCT 116 (colon) cells, this compound had a 50% growth inhibitory concentration (GI50) of 3 µM.

With `Nc1ccccc1NC(=O)/C=C/c1ccc(/C=C(/C(=O)NC2CC2)c2ccc3c(c2)OCO3)cc1` [Example 64, N-Cyclopropyl-3-(4-((1E)-3-(2-aminophenylamino)-3-oxoprop-1-en-1-yl}phenyl)-2-[benzodioxol-5-yl]-acrylamide], the “HDAC Inhibition % (1 μM)” value in assay [1] was 22.6%. Further, the “HDAC Inhibition % (10 μM)” value in assay [1] was found to be 48.8%. Moreover, the results for the concentration for 50% growth inhibition (GI50) in the assay with U251 (glioma) cells, in the assay on NCI-H460 (lung) cells and with HCT 116 (colon) cells were 78 µM, 52 µM and 44 µM, respectively.

With `COc1ccc(/C(=C\c2ccc(C(=O)Nc3ccccc3N)cc2)C(=O)Nc2ccccc2)c(OC)c1` [Example 122, N-(2-Aminophenyl)-4-(3-phenylamino-2-(2,4-dimethoxyphenyl)-3-oxoprop-1-en-1-yl)benzamide], in assay [1], the “HDAC Inhibition % (1 μM)” value is 28.9%. For the same compound, the “HDAC Inhibition % (10 μM)” value in assay [1] was 54.1%. Also, the GI50 stood at 50 µM in the assay on U251 (glioma) cells, 11 µM in the assay with NCI-H460 (lung) cells and 2.6 µM in the assay on HCT 116 (colon) cells.

As to `CC(C)NC(=O)/C(=C/c1ccc(/C=C/C(=O)NO)cc1)c1ccc(F)c(F)c1` [Example 24, N-Isopropyl-2-(3,4-difluorophenyl)-3-(4-((1E)-3-(hydroxyamino)-3-oxoprop-1-en-1-yl)phenyl)acrylamide], the “HDAC Inhibition % (1 μM)” value in assay [1] was 78.3%. Moreover, the “HDAC Inhibition % (10 μM)” value in assay [1] is given as 95.0%. Besides, the GI50 with U251 (glioma) cells came to 10.5 µM; with NCI-H460 (lung) cells, 20 µM; with HCT 116 (colon) cells, 1.2 µM.

In the case of `Nc1ccccc1NC(=O)/C=C/c1ccc(/C=C(/C(=O)NC2CC2)c2ccccc2Cl)cc1` [Example 63, N-Cyclopropyl-3-(4-((1E)-3-(2-aminophenylamino)-3-oxoprop-1-en-1-yl}phenyl)-2-(2-chlorophenyl)acrylamide], in assay [1], the “HDAC Inhibition % (1 μM)” value is reported as 27.5%. The “HDAC Inhibition % (10 μM)” value in assay [1] came out at 49.2%. Besides, the GI50 in the assay on U251 (glioma) cells was greater than 100 µM; in the assay with NCI-H460 (lung) cells it was 32 µM; in the assay with HCT 116 (colon) cells, 30 µM.

As for `CC(C)NC(=O)/C(=C/c1ccc(/C=C/C(=O)NO)cc1)c1cccc(F)c1` [Example 22, N-Isopropyl-2-(3-fluorophenyl)-3-(4-((1E)-3-(hydroxyamino)-3-oxoprop-1-en-1-yl)phenyl)acrylamide], the midpoint of inhibition in assay [1], the IC50, lay at 0.09 µM. Also, in assay [1], the “HDAC Inhibition % (1 μM)” value came to 85.5%. Also, the “HDAC Inhibition % (10 μM)” value in assay [1] came to 97.9%. For the same compound, the values for the GI50 in the assay on U251 (glioma) cells, in the assay with NCI-H460 (lung) cells and with HCT 116 (colon) cells were 10.5 µM, 6 µM and 2.6 µM, respectively.

As for `O=C(NC1CC1)/C(=C/c1ccc(C(=O)NCc2ccc(C(=O)NO)cc2)cc1)c1ccc(F)cc1Cl` [Example 155, 4-(3-(Cyclopropylamino)-2-(2-chloro-4-fluorophenyl)-3-oxoprop-1-en-1-yl)-N-(4-(hydroxycarbamoyl)benzyl)benzamide], the “HDAC Inhibition % (1 μM)” value in assay [1] came out at 88.8%. Further, the “HDAC Inhibition % (10 μM)” value in assay [1] came to 99.3%. The GI50 in the assay with U251 (glioma) cells turned out to be 26 µM; in the assay with NCI-H460 (lung) cells, 16 µM; in the assay on HCT 116 (colon) cells it was 30 µM.

On to `NC(=O)/C(=C/c1ccc(/C=C/C(=O)NO)cc1)c1ccc(F)cc1` [Example 28, 2-(4-Fluorophenyl)-3-(4-((1E)-3-(hydroxyamino)-3-oxoprop-1-en-1-yl)phenyl)acrylamide], for which the “HDAC Inhibition % (1 μM)” value in assay [1] turned out to be 80.5%. Moreover, in assay [1], the “HDAC Inhibition % (10 μM)” value worked out at 100.0%. Also, the concentration for 50% growth inhibition (GI50) in the assay on U251 (glioma) cells worked out at 6.1 µM; in the assay with NCI-H460 (lung) cells, 30 µM; in the assay on HCT 116 (colon) cells it was 6 µM.

On to `O=C(CCCCCNC(=O)c1ccc(/C=C(/C(=O)NC2CC2)c2ccccc2F)cc1)NO` [Example 163, 4-(3-(Cyclopropylamino)-2-(2-fluorophenyl)-3-oxoprop-1-en-1-yl)-N-(6-(hydroxyamino)-6-oxohexyl)benzamide], for which, in assay [1], the “HDAC Inhibition % (1 μM)” value was determined as 81.7%. In assay [1], the “HDAC Inhibition % (10 μM)” value is on record as 97.7%. Besides, the GI50 with U251 (glioma) cells was 41 µM; in the assay on NCI-H460 (lung) cells it was 10 µM; with HCT 116 (colon) cells, 32 µM.

On to `O=C(NC1CC1)/C(=C/c1ccc(C(=O)NCc2ccc(C(=O)NO)cc2)cc1)c1ccccc1` [Example 149, 4-(3-(Cyclopropylamino)-2-phenyl-3-oxoprop-1-en-1-yl)-N-(4-(hydroxycarbamoyl)benzyl)benzamide], for which the “HDAC Inhibition % (1 μM)” value in assay [1] worked out at 61.7%. Further, in assay [1], the “HDAC Inhibition % (10 μM)” value worked out at 88.0%. For the same compound, the results for the GI50 with U251 (glioma) cells, with NCI-H460 (lung) cells and in the assay on HCT 116 (colon) cells were 12 µM, 52 µM and 12 µM, respectively.

For `Nc1ccccc1NC(=O)c1ccc(/C=C(/C(=O)NC2CC2)c2cccnc2)cc1` [Example 127, N-(2-Aminophenyl)-4-[3-(cyclopropylamino)-3-oxo-2-pyridin-3-yl-prop-1-en-1-yl]benzamide], in assay [1], the “HDAC Inhibition % (1 μM)” value stood at 36.9%. The “HDAC Inhibition % (10 μM)” value in assay [1] was 55.4%. The 50% growth inhibitory concentration (GI50) was found to be 40 µM in the assay on U251 (glioma) cells, 12 µM in the assay on NCI-H460 (lung) cells and 22 µM in the assay with HCT 116 (colon) cells.
